Source: ChEMBL document CHEMBL5046290, “Design, Synthesis, and Preclinical Profiling of GSK3739936 (BMS-986180), an Allosteric Inhibitor of HIV-1 Integrase with Broad-Spectrum Activity toward 124/125 Polymorphs” (J Med Chem, 2022)

Legend:
[1] = test system: Human immunodeficiency virus 1; assay: Antiviral activity against recombinant HIV1 NLRep-Rluc harbouring polymorphic TA infected in human MT-2 cells assessed as inhibition of virus growth in presence of fetal bovine serum by measuring luciferase activity after 5 days; assay type: functional, organism-based; conditions: Human immunodeficiency virus 1, NLRep, MT2, 120 h
[2] = Stability in pH 1 for 2 days at 50 degC; assay type: physicochemical; conditions: buffer, pH 1, 48 h; time 2 day
[3] = Cmax in CD-1 mouse at 5 mg/kg, po by LC-MS/MS analysis; assay type: ADME, organism-based; parameters: route oral, dose 5 mg/kg; conditions: in vivo
UGT [4] = assay: Metabolic stability assessed as dog UGT-mediated metabolism by measuring half life by phase II UGT conjugation assay; assay type: ADME, Canis lupus familiaris
[5] = Toxicity in dog assessed as fecal change at upto 300 mg/kg, po administered as single dose; assay type: organism-based, Canis lupus familiaris; conditions: in vivo
[6] = Tmax in Beagle dog at 2 mg/kg, po by LC-MS/MS analysis; assay type: ADME, organism-based, Canis lupus familiaris; conditions: in vivo
[7] = AUC in Beagle dog at 2 mg/kg, po by LC-MS/MS analysis; assay type: ADME, organism-based, Canis lupus familiaris; parameters: dose 2 mg/kg; conditions: in vivo
[8] = test system: Human immunodeficiency virus 1; assay: Antiviral activity against recombinant HIV1 NLRep-Rluc harbouring polymorphic NT infected in human MT-2 cells assessed as inhibition of virus growth in presence of fetal bovine serum by measuring luciferase activity after 5 days; assay type: functional, organism-based; conditions: Human immunodeficiency virus 1, NLRep, MT2, 120 h
UGT [9] = target: UGT (Homo sapiens, UniProt O60656+O75310+O75795+P06133+P0DTE4+P0DTE5+P16662+P19224+P22309+P22310+P35503+P35504+P36537+P54855+Q6UWM9+Q9BY64+Q9HAW7+Q9HAW8+Q9HAW9); assay: Metabolic stability assessed as human UGT-mediated metabolism by measuring half life by phase II UGT conjugation assay; assay type: ADME, protein assay
[10] = Volume of distribution at steady state in Beagle dog at 1 mg/kg, iv by LC-MS/MS analysis; assay type: ADME, organism-based, Canis lupus familiaris; conditions: in vivo, read-out: Vdss
[11] = test system: Human immunodeficiency virus 1; assay: Antiviral activity against recombinant HIV1 NLRep-Rluc harbouring polymorphic NA infected in human MT-2 cells assessed as inhibition of virus growth in presence of fetal bovine serum by measuring luciferase activity after 5 days; assay type: functional, organism-based; conditions: Human immunodeficiency virus 1, NLRep, MT2, 120 h
[12] = Elimination half life in Cynomolgus monkey at 1 mg/kg, iv by LC-MS/MS analysis; assay type: ADME, organism-based, Macaca fascicularis; conditions: in vivo, read-out: beta t1/2 (converted)
L-type calcium channel = L-type calcium channel (Homo sapiens, UniProt O60840+Q01668+Q13698+Q13936); assay: Inhibition of calcium channel, Type L (unknown origin) at 10 uM; assay type: toxicity
[13] = Toxicity in rat assessed as histological changes in adrenal gland at 500 mg/kg/day; assay type: organism-based; conditions: in vivo
[14] = Toxicity in rat assessed as histological changes in thymus at 500 mg/kg/day; assay type: organism-based; conditions: in vivo
CYP [15] = assay: Half life in monkey assessed as CYP mediated metabolism in presence of […] by phase I metabolic oxidation assay; assay type: ADME, Macaca mulatta; conditions: rhesus monkey
[16] = Toxicity in rat at 500 mg/kg/day for one week; assay type: organism-based; conditions: in vivo
[17] = Clearance in Cynomolgus monkey at 1 mg/kg, iv by LC-MS/MS analysis; assay type: ADME, organism-based, Macaca fascicularis; conditions: in vivo
[18] = Stability in pH 7.4 for 2 weeks at 50 degC; assay type: physicochemical; conditions: buffer, pH 7.4, 336 h
[19] = Plasma protein binding in dog; assay type: ADME, cell-free, Canis lupus familiaris; conditions: read-out: PPB (converted)
[20] = Toxicity in rat assessed as maximum tolerated dose; conditions: in vivo
[21] = Toxicity in rat assessed as histological changes in stomach at 500 mg/kg/day; assay type: organism-based; conditions: in vivo
[22] = Tmax in Sprague-Dawley rat at 5 mg/kg, po by LC-MS/MS analysis; assay type: ADME, organism-based; conditions: in vivo
[23] = test system: Human immunodeficiency virus 1; assay: Antiviral activity against recombinant HIV1 A128T-resitant mutant […] infected in human MT-2 cells assessed as inhibition of virus growth in presence of fetal bovine serum by measuring luciferase activity after 5 days; assay type: functional, organism-based; conditions: Human immunodeficiency virus 1, MT2, 120 h
CYP [24] = assay: Half life in rat assessed as CYP mediated metabolism in presence of […] by phase I metabolic oxidation assay; assay type: ADME
[25] = Metabolic stability in rat liver microsome assessed half life at 0.5 uM by LC-MS/MS analysis; assay type: ADME; conditions: liver microsomes
[26] = Toxicity in rat assessed as histological changes in bone marrow at 500 mg/kg/day; assay type: organism-based; conditions: in vivo
[27] = Toxicity in rat assessed as histological changes in lymph node at 500 mg/kg/day; assay type: organism-based; conditions: in vivo
[28] = Clearance in Beagle dog at 1 mg/kg, iv by LC-MS/MS analysis; assay type: ADME, organism-based, Canis lupus familiaris; conditions: in vivo
[29] = Tmax in cynomolgus monkey at 2 mg/kg, po by LC-MS/MS analysis; assay type: ADME, organism-based, Macaca fascicularis; conditions: in vivo
Cytochrome P450 2C8 = target: T1, Cytochrome P450 2C8 (Homo sapiens, UniProt P10632); assay: Inhibition of human CYP2C8; assay type: ADME
T1 sequence (P10632 whole entry): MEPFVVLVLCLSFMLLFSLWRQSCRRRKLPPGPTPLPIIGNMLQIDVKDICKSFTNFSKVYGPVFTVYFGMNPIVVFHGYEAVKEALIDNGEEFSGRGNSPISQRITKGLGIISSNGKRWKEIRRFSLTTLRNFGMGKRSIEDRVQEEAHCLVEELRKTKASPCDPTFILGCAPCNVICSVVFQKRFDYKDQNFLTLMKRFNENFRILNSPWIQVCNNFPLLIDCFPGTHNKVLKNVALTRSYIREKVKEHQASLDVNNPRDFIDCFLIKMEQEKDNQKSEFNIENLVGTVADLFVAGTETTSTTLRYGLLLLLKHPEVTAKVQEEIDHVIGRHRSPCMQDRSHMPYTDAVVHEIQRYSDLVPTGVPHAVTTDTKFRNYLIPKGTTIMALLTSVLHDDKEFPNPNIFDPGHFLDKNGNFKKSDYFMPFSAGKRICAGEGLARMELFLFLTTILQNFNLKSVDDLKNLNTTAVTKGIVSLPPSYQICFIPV

[30] = AUC in Sprague-Dawley rat at 5 mg/kg, po by LC-MS/MS analysis; assay type: ADME, organism-based; parameters: dose 5 mg/kg; conditions: in vivo
UGT [31] = assay: Metabolic stability assessed as rat UGT-mediated metabolism by measuring half life by phase II UGT conjugation assay; assay type: ADME
Cytochrome P450 2C19 = Cytochrome P450 2C19 (Homo sapiens, UniProt P33261); assay: Inhibition of human CYP2C19; assay type: ADME
Chain of Cytochrome P450 2C19 (P33261 whole entry): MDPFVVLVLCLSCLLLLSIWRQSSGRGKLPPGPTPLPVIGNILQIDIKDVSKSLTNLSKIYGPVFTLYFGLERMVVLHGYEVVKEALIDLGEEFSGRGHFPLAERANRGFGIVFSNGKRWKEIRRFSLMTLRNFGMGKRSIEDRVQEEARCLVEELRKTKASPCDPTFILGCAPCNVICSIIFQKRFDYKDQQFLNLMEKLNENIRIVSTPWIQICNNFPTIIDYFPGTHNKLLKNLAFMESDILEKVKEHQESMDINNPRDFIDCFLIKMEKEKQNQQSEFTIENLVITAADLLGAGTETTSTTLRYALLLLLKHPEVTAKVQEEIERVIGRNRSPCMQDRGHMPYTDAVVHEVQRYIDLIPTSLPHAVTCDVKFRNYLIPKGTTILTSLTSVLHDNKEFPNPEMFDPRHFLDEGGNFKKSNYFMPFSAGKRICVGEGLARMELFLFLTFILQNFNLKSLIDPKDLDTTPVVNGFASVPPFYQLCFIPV

[32] = Volume of distribution at steady state in CD-1 mouse at 1 mg/kg, iv by LC-MS/MS analysis; assay type: ADME, organism-based; conditions: in vivo, read-out: Vdss
[33] = Elimination half life in CD-1 mouse at 1 mg/kg, iv by LC-MS/MS analysis; assay type: ADME, organism-based; conditions: in vivo, read-out: beta t1/2 (converted)
[34] = Cardiotoxicity in dog heart assessed as change in electrocardiographic parameter upto 128 uM of plasma concentration; assay type: toxicity, Canis lupus familiaris
[35] = Cmax in cynomolgus monkey at 2 mg/kg, po by LC-MS/MS analysis; assay type: ADME, organism-based, Macaca fascicularis; parameters: route oral, dose 2 mg/kg; conditions: in vivo
UGT [36] = assay: Metabolic stability assessed as monkey UGT-mediated metabolism by measuring half life by phase II UGT conjugation assay; assay type: ADME, Macaca mulatta; conditions: rhesus monkey
[37] = Elimination half life in Sprague-Dawley rat at 1 mg/kg, iv by LC-MS/MS analysis; assay type: ADME, organism-based; conditions: in vivo, read-out: beta t1/2 (converted)
[38] = Toxicity in rat assessed as lipidosis at 500 mg/kg/day; assay type: organism-based; conditions: in vivo
[39] = Elimination half life in Beagle dog at 1 mg/kg, iv by LC-MS/MS analysis; assay type: ADME, organism-based, Canis lupus familiaris; conditions: in vivo, read-out: beta t1/2 (converted)

Q: With `Cc1nc(C)c([C@H](OC(C)(C)C)C(=O)O)c(N2CCC(C)(C)CC2)c1-c1ccc(OCCc2ccc(F)cc2)cc1` as the compound, how does the EC50 [1] read?
A: 2.8 nM

Q: And the Stability [2]?
A: Unstable

Q: And the Cmax [3]?
A: 2360 nM

Q: And the half-life (UGT [4])?
A: ≥ 2 h

Q: And the Activity [5]?
A: Toxic

Q: And the Tmax [6]?
A: 2 h

Q: And the AUC [7]?
A: 18.5 µM·h

Q: And the EC50 [8]?
A: 3.5 nM

Q: And the half-life (UGT [9])?
A: ≥ 2 h

Q: What about the Vd [10] of the same compound?
A: 0.7 L/kg

Q: And the EC50 [11]?
A: 3.8 nM

Q: What about the half-life [12] of the same compound?
A: 2.4 h

Q: What about the inhibition at 10 µM (L-type calcium channel) of the same compound?
A: 96%

Q: And the Activity [13]?
A: Toxic

Q: What about the Activity [14] of the same compound?
A: Toxic

Q: What about the half-life (CYP [15]) of the same compound?
A: 0.983 h

Q: And the Activity [16]?
A: Toxic

Q: And the clearance [17]?
A: 14.5 mL/min/kg

Q: What about the Stability [18] of the same compound?
A: Stable

Q: And the fraction unbound [19]?
A: 0.13

Q: And the MTD [20]?
A: 50 mg/kg/day

Q: And the Activity [21]?
A: Toxic

Q: And the Tmax [22]?
A: 2.7 h

Q: What about the EC50 [23] of the same compound?
A: 363 nM

Q: And the half-life (CYP [24])?
A: > 2 h

Q: And the half-life at 0.5 µM [25]?
A: > 2 h

Q: What about the Activity [26] of the same compound?
A: Toxic

Q: What about the Activity [27] of the same compound?
A: Toxic

Q: And the clearance [28]?
A: 2.9 mL/min/kg

Q: What about the Tmax [29] of the same compound?
A: 2 h

Q: And the IC50 (Cytochrome P450 2C8)?
A: ≥ 24300 nM

Q: What about the AUC [30] of the same compound?
A: 14 µM·h

Q: What about the half-life (UGT [31]) of the same compound?
A: ≥ 2 h

Q: And the IC50 (Cytochrome P450 2C19)?
A: ≥ 24300 nM

Q: What about the Vd [32] of the same compound?
A: 2.4 L/kg

Q: What about the half-life [33] of the same compound?
A: 6.3 h

Q: What about the Activity [34] of the same compound?
A: Non-Toxic

Q: And the Cmax [35]?
A: 525 nM

Q: And the half-life (UGT [36])?
A: ≥ 2 h

Q: What about the half-life [37] of the same compound?
A: 4.3 h

Q: And the Activity [38]?
A: Toxic

Q: What about the half-life [39] of the same compound?
A: 5.1 h
